Source: the supplement of paper PMC11665569
± gives the standard deviation of the averaged measurements.

Key:
Assay in all cases: relative viability (fraction of vehicle control); higher = more viable / less inhibited
Details in all cases: treatment time: 5 days
SW1573 = tested on: SW1573
Protocol: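 CCK-8 viability of SW1573 cells transfected with control, YAP/TAZ or TEAD1-4 siRNAs and treated with KRAS G12C inhibitors for 5 days. Values are normalised to vehicle control.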

H2030 = tested on: H2030
Protocol: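 CCK-8 viability of H2030 cells transfected with control, YAP/TAZ or TEAD1-4 siRNAs and treated with KRAS G12C inhibitors for 5 days. Values are normalised to vehicle control.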

H358 = tested on: H358
Protocol: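 CCK-8 viability of H358 cells with empty vector or constitutively active YAP S127A, treated with KRAS G12C inhibitors for 5 days. Absorbance at 450 nm normalised to vehicle control.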

C=C(F)C(=O)N1CCN(c2nc(OC[C@@H]3CCCN3C)nc3c2CCN(c2cccc4cccc(Cl)c24)C3)C[C@@H]1CC#N [MRTX849]
relative viability
Details	H358	H2030	SW1573
log10 concentration (uM): 0, ectopic expression: YAP S127A	0.6 ± 0.033	–	–
log10 concentration (uM): 0, ectopic expression: empty vector (YAP experiment)	0.139 ± 0.025	–	–
log10 concentration (uM): 0, siRNA knockdown: TEAD1-4 siRNA 1	–	0.333 ± 0.042	0.154 ± 0.02
log10 concentration (uM): 0, siRNA knockdown: TEAD1-4 siRNA 2	–	0.289 ± 0.033	0.307 ± 0.062
log10 concentration (uM): 0, siRNA knockdown: YAP/TAZ siRNA 1	–	0.531 ± 0.042	0.0935 ± 0.015
log10 concentration (uM): 0, siRNA knockdown: YAP/TAZ siRNA 2	–	0.441 ± 0.099	0.0411 ± 0.0087
log10 concentration (uM): 0, siRNA knockdown: negative control siRNA	–	0.768 ± 0.29	0.426 ± 0.091
log10 concentration (uM): 0.69897, ectopic expression: YAP S127A	0.144 ± 0.069	–	–
log10 concentration (uM): 0.69897, ectopic expression: empty vector (YAP experiment)	0.0333 ± 0.033	–	–
log10 concentration (uM): 0.69897, siRNA knockdown: TEAD1-4 siRNA 1	–	0.0176 ± 0.0044	0.0234 ± 0.0063
log10 concentration (uM): 0.69897, siRNA knockdown: TEAD1-4 siRNA 2	–	0.0364	0.127 ± 0.03
log10 concentration (uM): 0.69897, siRNA knockdown: YAP/TAZ siRNA 1	–	0.0187 ± 0.0039	0.00636 ± 0.0042
log10 concentration (uM): 0.69897, siRNA knockdown: YAP/TAZ siRNA 2	–	0.0145 ± 0.0049	0.00791 ± 0.0041
log10 concentration (uM): 0.69897, siRNA knockdown: negative control siRNA	–	0.162 ± 0.12	0.00854 ± 0.0029
log10 concentration (uM): -0.30103, ectopic expression: YAP S127A	0.811 ± 0.22	–	–
log10 concentration (uM): -0.30103, ectopic expression: empty vector (YAP experiment)	0.217 ± 0.076	–	–
log10 concentration (uM): -0.30103, siRNA knockdown: TEAD1-4 siRNA 1	–	0.413 ± 0.04	0.173 ± 0.015
log10 concentration (uM): -0.30103, siRNA knockdown: TEAD1-4 siRNA 2	–	0.358 ± 0.016	0.246 ± 0.02
log10 concentration (uM): -0.30103, siRNA knockdown: YAP/TAZ siRNA 1	–	0.458 ± 0.14	0.141 ± 0.007
log10 concentration (uM): -0.30103, siRNA knockdown: YAP/TAZ siRNA 2	–	0.496 ± 0.066	0.0897 ± 0.0099
log10 concentration (uM): -0.30103, siRNA knockdown: negative control siRNA	–	0.814 ± 0.24	0.66 ± 0.035
log10 concentration (uM): -1, ectopic expression: YAP S127A	0.733 ± 0.13	–	–
log10 concentration (uM): -1, ectopic expression: empty vector (YAP experiment)	0.328 ± 0.1	–	–
log10 concentration (uM): -1, siRNA knockdown: TEAD1-4 siRNA 1	–	0.468 ± 0.053	0.244 ± 0.026
log10 concentration (uM): -1, siRNA knockdown: TEAD1-4 siRNA 2	–	0.437 ± 0.055	0.263 ± 0.053
log10 concentration (uM): -1, siRNA knockdown: YAP/TAZ siRNA 1	–	0.409 ± 0.25	0.154 ± 0.034
log10 concentration (uM): -1, siRNA knockdown: YAP/TAZ siRNA 2	–	0.238 ± 0.3	0.0905 ± 0.0041
log10 concentration (uM): -1, siRNA knockdown: negative control siRNA	–	0.814 ± 0.23	0.726 ± 0.012
log10 concentration (uM): -1.30103, ectopic expression: YAP S127A	0.811 ± 0.069	–	–
log10 concentration (uM): -1.30103, ectopic expression: empty vector (YAP experiment)	0.361 ± 0.0096	–	–
log10 concentration (uM): -1.30103, siRNA knockdown: TEAD1-4 siRNA 1	–	0.473 ± 0.06	0.262 ± 0.049
log10 concentration (uM): -1.30103, siRNA knockdown: TEAD1-4 siRNA 2	–	0.428 ± 0.039	0.289 ± 0.026
log10 concentration (uM): -1.30103, siRNA knockdown: YAP/TAZ siRNA 1	–	0.625 ± 0.072	0.161 ± 0.0043
log10 concentration (uM): -1.30103, siRNA knockdown: YAP/TAZ siRNA 2	–	0.322 ± 0.18	0.108 ± 0.014
log10 concentration (uM): -1.30103, siRNA knockdown: negative control siRNA	–	0.795 ± 0.24	0.751 ± 0.028
log10 concentration (uM): -2, ectopic expression: YAP S127A	1.02 ± 0.16	–	–
log10 concentration (uM): -2, ectopic expression: empty vector (YAP experiment)	0.678 ± 0.098	–	–
log10 concentration (uM): -2, siRNA knockdown: TEAD1-4 siRNA 1	–	0.676 ± 0.085	0.463 ± 0.022
log10 concentration (uM): -2, siRNA knockdown: TEAD1-4 siRNA 2	–	0.707 ± 0.1	0.452 ± 0.075
log10 concentration (uM): -2, siRNA knockdown: YAP/TAZ siRNA 1	–	0.901 ± 0.071	0.23 ± 0.018
log10 concentration (uM): -2, siRNA knockdown: YAP/TAZ siRNA 2	–	0.521 ± 0.31	0.181 ± 0.0047
log10 concentration (uM): -2, siRNA knockdown: negative control siRNA	–	0.836 ± 0.2	0.847 ± 0.029
log10 concentration (uM): -2.30103, ectopic expression: YAP S127A	1.1 ± 0.14	–	–
log10 concentration (uM): -2.30103, ectopic expression: empty vector (YAP experiment)	0.783 ± 0.044	–	–
log10 concentration (uM): -2.30103, siRNA knockdown: TEAD1-4 siRNA 1	–	0.774 ± 0.058	0.552 ± 0.046
log10 concentration (uM): -2.30103, siRNA knockdown: TEAD1-4 siRNA 2	–	0.625 ± 0.058	0.5 ± 0.073
log10 concentration (uM): -2.30103, siRNA knockdown: YAP/TAZ siRNA 1	–	0.958 ± 0.073	0.345 ± 0.022
log10 concentration (uM): -2.30103, siRNA knockdown: YAP/TAZ siRNA 2	–	0.707 ± 0.14	0.308 ± 0.012
log10 concentration (uM): -2.30103, siRNA knockdown: negative control siRNA	–	0.836 ± 0.19	0.915 ± 0.043
log10 concentration (uM): -3, ectopic expression: YAP S127A	1.27 ± 0.033	–	–
log10 concentration (uM): -3, ectopic expression: empty vector (YAP experiment)	0.828 ± 0.035	–	–
log10 concentration (uM): -3, siRNA knockdown: TEAD1-4 siRNA 1	–	1.02 ± 0.028	0.913 ± 0.026
log10 concentration (uM): -3, siRNA knockdown: TEAD1-4 siRNA 2	–	0.844 ± 0.084	0.702 ± 0.093
log10 concentration (uM): -3, siRNA knockdown: YAP/TAZ siRNA 1	–	1.07 ± 0.071	0.582 ± 0.034
log10 concentration (uM): -3, siRNA knockdown: YAP/TAZ siRNA 2	–	0.756 ± 0.18	0.531 ± 0.012
log10 concentration (uM): -3, siRNA knockdown: negative control siRNA	–	0.909 ± 0.11	0.978 ± 0.08
log10 concentration (uM): -4, ectopic expression: YAP S127A	1.12 ± 0.038	–	–
log10 concentration (uM): -4, ectopic expression: empty vector (YAP experiment)	0.778 ± 0.035	–	–
log10 concentration (uM): -4, siRNA knockdown: TEAD1-4 siRNA 1	–	1.14 ± 0.055	0.988 ± 0.081
log10 concentration (uM): -4, siRNA knockdown: TEAD1-4 siRNA 2	–	0.984 ± 0.074	0.877 ± 0.072
log10 concentration (uM): -4, siRNA knockdown: YAP/TAZ siRNA 1	–	1.17 ± 0.027	0.915 ± 0.038
log10 concentration (uM): -4, siRNA knockdown: YAP/TAZ siRNA 2	–	0.911 ± 0.17	0.845 ± 0.056
log10 concentration (uM): -4, siRNA knockdown: negative control siRNA	–	0.97 ± 0.048	0.997 ± 0.053
